From US20230088286A1, “USP7 INHIBITOR FOR USE IN THE TREATMENT OF CANCER” (ALMAC DISCOVERY LIMITED, priority 2020, published 2023) come the findings set out here.

The subject of series [1] is primary human fibroblasts (HDF) in hypoxic chamber. Briefly: sVEGF ELISA in primary fibroblasts under hypoxia. The format is cell-based. The note with it: 48 h. The text has this: FIG. 9: USP7 inhibition decreases VEGF levels in fibroblasts under hypoxia.
In response to wounding and during tumour growth, activated fibroblasts secrete synthesizers and modifiers of the ECM but also soluble angiogenic growth factors such as VEGF. Although VEGF gene expression can be controlled by multiple transcription factors, its major regulator is hypoxia-inducible factor 1 (HIF-1). HIF-1 mediates activation of VEGF transcription in response to hypoxia in solid tumours and in various malignant cell lines.
To assess its potency in a functional assay, HDF were treated with vehicle or various concentrations of USP7 inhibitor ADC-159 and incubated for 48 hours in hypoxic chamber. Cell culture supernatants were collected, and secreted VEGF was measured by ELISA.
(§1) For the co-culture experiments, 5×10^4 cancer cells were seeded in transwell in 0.5 mL complete growth medium and placed on the top of 0.1×10^6 fibroblasts plated in 12-well in 1 mL low serum growth media overnight. Following day cancer cells were washed with PBS and media replaced with reduced (1%) serum growth media. 0.5×10^6 PBMC were plated on top of fibroblasts, incubated for 45 min and activated with CD3 (1 μg/ml final concentration) and CD28 (5 μg/ml final concentration). […] Monoculture experiments, 0.1×10^6 cells were seeded in 12-well in 1 mL of complete growth media (cancer cells) or low serum growth media (fibroblasts) and incubated overnight. […] Afterwards, cell culture media was collected, cell debris were removed by centrifugation the concentration of VEGF in the cell culture supernatants was measured using the human/mouse VEGF immunoassay Quantikine ELISA kit (R&D systems, Minneapolis, Minn., USA) according to the manufacturer's instructions. For the intracellular VEGF detection, total protein concentration was determined by BCA (Pierce Chemical, USA) and VEGF levels determined using the same kit described above.
In general terms: ELISA stands for enzyme-linked immunosorbent assay.

The subject of series [2] is HDF and HUVEC co-culture. Kind of series: In vitro co-culture tube formation assay. The format is cell-based, human. The following applies: for tube formation, pre-formed tubes: treated after tube formation; for tube length, de novo tube formation: treated prior to tube formation, 14 days. On the procedure:
Representative pictures taken at day 14 are shown. Tube formation was quantified by measuring tube length ([…]) and is shown.
HDF were seeded in 96-well plate (2500 cells/well). Once HDF formed a monolayer, media was removed and HUVECs (2500 cells/well) were seeded on top of HDF. […] The effect on existing vessels was assayed by allowing tubes to form prior to treatment. Cells were treated every 3-days during 14 days of incubation, followed by washing with PBS and fixation with 4% formaldehyde for 15 min at room temperature (RT). Cells were permeabilized with 1× PBS containing 0.1% Triton X-100 for 5 min at RT and blocked 30 min in 1% BSA/PBS. Afterwards, cells were incubated with CD31 antibody (Thermo Fisher, MA5-13188) […] followed by incubation with secondary Alexa fluor 488F goat-anti-mouse (Thermo Fisher, A28175) at 1/2000 dilution for 3 h at RT. Immunolabeled samples were counterstained with Hoechst 33342 nuclear dye (Thermo Fisher, 62249) at 1/1000 dilution for 15 min. Tubes were visualized with IN Cell Analyzer 2000 using a 2× objective. Tube length was measured and quantified using the AngioTool software for each imaging session (available in the public domain at https://ccrod.cancer.gov/confluence/display/ROB2/Downloads

The subject of series [3] is CT-26 mouse cancer cell line. Kind of series: CT-26 cell viability in vitro. The class given is cell-based. On the procedure: CT-26 syngeneic models are in vivo models to monitor the effect of compounds on the TME. […] After 72 hours cell viability was measured by CellTiter-Glo®.
Series [4] has as its system LNCaP. Kind of series: LNCaP cell EC50. The format is cell-based. The note with it: Homo sapiens.
Series [5] is described as follows: PPB Fu (m). The format is in vitro ADME. The note with it: mouse, plasma.
For series [6], the target named is 1A2 (Homo sapiens, UniProt P05177). Briefly: Cyp inhibition 1A2. The following applies: read-out: Cyps: 1A2. The class given is in vitro ADME.
The test system of series [7] is HT29, H1299, LNCaP and MCF-7 cells. Kind of series: sVEGF ELISA in cancer cells. The note with it: MCF-7, HT29, H1299, compared to vehicle-treated cells. The class given is cell-based, human. How it is done:
Levels of sVEGF released to cell culture media was measured by ELISA.
as §1

For series [8], the system named is immortalized lung fibroblasts (WI38-VA13). Kind of series: sVEGF ELISA in immortalized fibroblasts. The following applies: SV-40 immortalized, destabilized p53. The class given is cell-based, human. How it is done:
FIG. 7: USP7 inhibition-mediated decrease in VEGF secretion is dependent on a functional p53 pathway.
as §1

For series [9], the system named is HUVEC. Kind of series: Matrigel tube formation assay. The format is cell-based, human. The following applies: 6 hours. How it is done:
FIG. 28: USP7 inhibition has no direct effect on HUVEC tube formation in vitro. […] The tube formation images were taken after 6 h after tube initiation.
Each well of a pre-chilled 96-well plate was coated with 50 μL of unpolymerized growth factor reduced Matrigel® (9.2 mg/mL) and incubated at 37° C. in 5% CO2 for 2 h. HUVECs were harvested with trypsin, and 1.5×10^4 cells were resuspended in 100 μL complete endothelial cell growth medium. […] After approximately 6 hours of incubation at 37° C. in 5% CO2, images of the center of each were taken at 4× magnification.

In series [10] the test system is CT-26 tumours. Briefly: Flow cytometry of tumour infiltrating immune cells, CT-26 model (AD-04). The class given is in vivo, mouse. The note with it: dosed 10 days. On the procedure: FIG. 32: USP7 inhibition modulates the tumour microenvironment immune compartment. […] Flow cytometry analysis of tumour infiltrating immune cells in the CT-26 syngeneic model dosed with the USP7 inhibitor for 10 days.
Harvested tumours were collected in HBSS medium, minced and incubated 30 minutes at 37° C. in non-enzymatic cell dissociation buffer followed by mechanical dissociation through a 70 μm filter. Viable cells were then enriched using Ficoll® gradient. All cells suspensions were count and one million viable cells were seeded in 96-well plates in 100 μL of Staining Buffer for acquisition. Non-specific binding was performed using mouse FcR blocking reagent. Viobility 405/452 Fixable Dye (Miltenyi Biotec) was used to assess cell viability. The antibodies directed against the CD45, CD335 (Nkp46), FoxP3 CD8a, CD4, CD3e, CD19, F4/80, CD11c, CD11 b (Miltenyi Biotec), Ly6G and Ly6C (Biolegend) were added. The stained cells were analyzed with a Fortessa X20 cytometer (BD Biosciences).
For orientation: Flow cytometry measures light scatter and fluorescence of single cells or particles in a stream.

The test system of series [11] is HIF-1α. Kind of series: Cycloheximide chase assay, HIF-1α half-life.
Method: Cells were lysed at the indicated time points (from 0 to 60 min) and samples analysed by immuno-blotting probing for HIF-1α. HIF-1α half-life was quantified by densitometry analysis. β-Actin was included as a normalization control.
Samples were subsequently collected at various time points for immuno-blot analysis probing for HIF-1α levels.
Cells were harvested and lysed at different time points and subjected to Western blot analysis using anti-HIF-1α antibody (D2U3T, Rabbit mAb #14179 Cell Signalling) and β-actin (Santa Cruz: A5316; 1:5000) as a loading control.

By EC50 is commonly meant the midpoint of the concentration-response curve. By fraction unbound is commonly meant the share of the substance not bound to proteins or other matrix.

Chain of 1A2 (P05177 whole entry): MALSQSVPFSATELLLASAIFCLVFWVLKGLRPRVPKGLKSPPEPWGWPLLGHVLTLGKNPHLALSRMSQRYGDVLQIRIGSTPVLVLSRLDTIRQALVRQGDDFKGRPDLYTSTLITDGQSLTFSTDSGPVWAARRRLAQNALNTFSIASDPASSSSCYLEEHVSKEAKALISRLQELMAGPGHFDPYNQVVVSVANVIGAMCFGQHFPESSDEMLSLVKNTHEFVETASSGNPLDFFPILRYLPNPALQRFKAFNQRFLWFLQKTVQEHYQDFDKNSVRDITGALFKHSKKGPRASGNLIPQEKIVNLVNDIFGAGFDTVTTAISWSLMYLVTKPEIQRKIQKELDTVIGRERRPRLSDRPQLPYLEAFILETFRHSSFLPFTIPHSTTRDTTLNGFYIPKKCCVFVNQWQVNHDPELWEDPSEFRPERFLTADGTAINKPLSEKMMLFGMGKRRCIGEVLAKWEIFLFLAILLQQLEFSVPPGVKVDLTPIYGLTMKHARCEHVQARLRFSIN

For the compound `CC1(C(=O)N2CCC(O)(Cn3cnc4c(cc(Cl)n4-c4ccc5c(c4)CCO5)c3=O)CC2)CC1` [ADC-159, 6-Chloro-7-(2,3-dihydrobenzofuran-5-yl)-3-((4-hydroxy-1-(1-methylcyclopropane-1-carbonyl)piperidin-4-yl)methyl)-3,7-dihydro-4H-pyrrolo[2,3-d]pyrimidin-4-One], the “VEGF secretion under hypoxia” value in series [1] was “decreased VEGF levels in a dose-dependent manner”. In series [2], the “tube formation, pre-formed tubes” value is reported as “did not have significant effect” and the “tube length, de novo tube formation” value is on record as “inhibitory effect”. Also, the “sensitivity of CT-26 cell line in vitro” value in series [3] was “not sensitive”. Further, a half-maximal response in series [4] (EC50) required 76 nM. This compound registered a fraction unbound in series [5] of 0.1. Besides, the IC50 in series [6] is over 20000 nM.
Turning to `C[C@H](CC(=O)N1CCC(O)(Cn2cnc3c(-c4ccc(CN)cc4)n(C)nc3c2=O)CC1)c1ccccc1` [AD-04, (R)-3-(4-(Aminomethyl)phenyl)-6-((4-hydroxy-1-(3-phenylbutanoyl)piperidin-4-yl)methyl)-2-methyl-2H-pyrazolo[4,3-d]pyrimidin-7(6H)-one], the “sVEGF levels in supernatants of cancer cell lines” value in series [7] was “not significantly affected”. Also, the VEGF secretion entry in series [8] was “insensitive”. Moreover, in [1], the “VEGF secretion under hypoxia” value was “decreased in a dose-dependent manner”. For the same compound, in series [2], the “tube formation, pre-formed tubes” value is reported as “significantly less pronounced” and the “tube length, de novo tube formation” value is “significant reduction”. In series [9], the “HUVEC tube formation on Matrigel” value is “did not disrupt”. For the same compound, the “sensitivity of CT-26 cell line in vitro” value in [3] is on record as “not sensitive”. In [10], the “CD4 lymphocytes among TILs” value is on record as “no significant change”, the “cytotoxic T-lymphocytes among TILs” value was “significant increase” and the “macrophages in myeloid cell infiltrate” value is “decrease”. This compound also gave an HIF-1α half-life in series [11] (HDF, hypoxia, cycloheximide 100 μg/mL, AD-04 1 μM) of 4 min. Besides, the “reduction of HIF-1α half-life” value in series [11] (versus untreated cells (6 minutes and 36 seconds)) is given as 40%.
